Data published in US20120316122A1, “PHARMACEUTICAL COMPOSITIONS FOR COMBATING THROMBOTIC DISEASES AND THEIR PREPARATION AND USES” (INSTITUTE OF RADIATION MEDICINE, ACADEMY OF MILITARY …, priority 2009, published 2012).
Entries after “also recorded” stand apart in the source; their conditions may differ.

Columns and labels:
[1] = test system: platelet aggregation induced by ADP; assay: ADP-induced maximum platelet aggregation rate after gastric administration (Example 1); type: in vivo, Wistar rats; settings: 40 mg/Kg gastric once per day 7 days; blood 1 h after last dose; ADP 20 μM
Experimental: Wistar rats, after 1 h of administration on the 7th day, were anesthetized by intraperitoneal injection of pentobarbital sodium (40-60 mg/kg), blood samples were collected from hearts, anti-coagulated with 3.8% sodium citrate (volume ratio: 1:9). Centrifugation was performed under 800 rpm and room temperature for 10 min to separate platelet-rich plasmas (PRP), then centrifugation was performed again under 3000 rpm and room temperature for 20 min to separate platelet-poor plasmas (PPP). Counting was performed by using F-820 blood cell counter, and PRP was adjusted with PPP to have a concentration of 3.0×10^11/L.
Chronolog platelet aggregation analyzer test: Platelet suspension was adjusted with plasma to have a concentration of 3.0×10^11/L, the platelet to aggregation analyzer was turned on and pre-warmed for 30 min, and PPP was used as a blank control to adjust transmittance to be 100%. 450 μL of platelet suspension were taken, stirred with a stir bar and pre-warmed at 37° C. for 3 min, and separately added with inducing agent (50 μL) ADP agent (final concentration: 20 μM), then 5 min diagram was recorded, and aggregation rates at 1 min, 3 min and 5 min and the maximum aggregation rates were read.
Blood samples were collected from heart of anaesthetized mice after 1 h of the last gastric administration of timosaponins, and analyzed to determine the rates of platelet aggregation induced by ADP (20 μM) after administration.

[2] = test system: artery-vein bypass thrombosis; assay: Artery-vein bypass thrombosis (Example 1); type: in vivo, Wistar rats; settings: 40 mg/Kg gastric once per day 7 days; bypass 15 min
Experimental: The pipe was taken down after 15 min, thrombus was taken out, rolled on a wet filter paper, residual blood was removed, placed on a parchment paper and weighed to obtained its wet weight. Then, it was placed in a drying oven and dried at 60° C. for 1 h to reach a constant weight, cooled and weighed to obtain the dry weight of thrombus.

caudal vein bleeding = assay: Caudal vein bleeding time in mice; settings: 40 mg/Kg gastric twice per day 5 days, test 1 h after dose on 6th day
Experimental: Mice were randomly divided into 7 groups: control group, aspirin group (ASP,40 mg/Kg), BII group (40 mg/Kg), AIII group (40 mg/Kg), 1:1 group (weight ratio of AIII to BII, 40 mg/Kg), 1:3 group (weight ratio of AIII to BII, 40 mg/Kg), 3:1 group (weight ratio of AIII to BII, 40 mg/Kg). Continuous gastric administration was performed for 5 days, twice per day, and the experiments were conducted after 1 h of the administration on the 6th day. The control group was administered with physiological saline of the same volume. All drug ratios were AIII to BII.
Mice were anesthetized with pentobarbital sodium (40-60 mg/kg), placed on a worm and comfortable pad, a tail tip was cut at a place where the tail of mice had to a diameter of 2.25-2.5 mm, and immediately placed in PBS (37° C.), timing started. Hemostatic time and re-bleeding time within 10 min were observed, and the bleeding volume of mice was presumed by hemoglobin volume.

platelet aggregation = assay: In vitro activity screening: platelet aggregation; type: cell-based
[3] = test system: human platelet aggregation; settings: single compounds; cited from earlier work
blood coagulation [4] = settings: single compounds; cited from earlier work
[5] = test system: thrombotic agent consisting of collagen and adrenalin; assay: Lethal time in mice by caudal vein injection of collagen; type: in vivo, Kunming mice; settings: 40 mg/Kg gastric twice per day 5 days, test 1 h after dose on 6th day; observed within 10 min
Experimental: Mice were fixed on mice-fixed frame, and thrombotic agent (100 μg/mouse) consisting of collagen (0.5 mg/kg) and adrenalin (60 ug/kg) were administered by caudal vein injection. The symptoms, symptom occurrence time, and the lethal time in mice were observed within 10 min, and mice […] after 10 min were deemed as survival.

[6] = test system: jugular artery-vein bypass thrombosis; assay: Artery-vein bypass thrombosis in rats (Example 3); type: in vivo, Wistar rats; settings: aspirin 40 mg/kg gastric once per day 7 days; bypass 20 min
Experimental: Then, it was placed in a drying oven and dried at 60° C. for 1 h to reach a constant weight, cooled and weighed to obtain the dry weight of thrombus. […] The aspirin positive control group gave thrombus dry and wet weights slightly higher than those of the large dose group, and had significant difference from the control group.

[7] = test system: ADP-induced platelet aggregation; assay: ADP-induced platelet aggregation rate in rats after gastric administration (Example 3); type: in vivo, Wistar rats; settings: aspirin 40 mg/kg gastric once per day 7 days; ADP 20 μM; in %
Experimental: Wistar rats were randomly divided into 5 groups, i.e., blank control group, aspirin 40 mg/kg group, the present pharmaceutical composition 10 mg/kg, 20 mg/kg and 40 mg/kg groups, the animals of the groups were subjected to continuous gastric administration for 7 days, once per day, dose volume was 10 mL/kg, operation was conducted after 1 h of administration on the 7th day, and the blank control was administered with distilled water of the same volume. […]
Chronolog platelet aggregation analyzer test: Platelet suspension was adjusted with plasma to have a concentration of 3.0×10^11/L, the platelet aggregation analyzer was turned on, and PPP was used as a blank control to adjust transmittance to be 100%. 450 μL of platelet suspension were taken, stirred with a stir bar and pre-warmed at 37° C. for 3 min, and separately added with inducing agent (50 μL) ADP agent (final concentration: 20 μM), then 5 min diagram was recorded, and aggregation rates at 1 min, 3 min and 5 min and the maximum aggregation rates were read.
The administration method of the present pharmaceutical composition and the grouping method were identical to that of the third part, blood samples were collected from hearts of rats on the 7th day after administration, and the ADP-induced platelet aggregation and bleeding/coagulation time (PT, TT and APTT) of the same batch were determined. […]

blood coagulation [8] = assay: Blood coagulation parameters APTT, PT and TT in rats; type: in vivo, Wistar rats; settings: aspirin group (40 mg/kg) gastric once per day 7 days
Experimental: Wistar rats were randomly divided into 5 groups, i.e., blank control group, aspirin 40 mg/kg group, the present pharmaceutical composition 10 mg/kg, 20 mg/kg and 40 mg/kg groups, the animals of the groups were subjected to continuous gastric administration for 7 days, once per day, dose volume was 10 mL/kg, operation was conducted after 1 h of administration on the 7th day, and the blank control was administered with distilled water of the same volume.
Blood samples were collected, plasmas were separated, and the operation was conducted according to the specification of kits.
The administration method of the present pharmaceutical composition and the grouping method were identical to that of the third part, blood samples were collected from hearts of rats on the 7th day after administration, and the ADP-induced platelet aggregation and bleeding/coagulation time (PT, TT and APTT) of the same batch were determined. […] The aspirin group gave a platelet aggregation rate lower than that of the control group, to but had no significant difference.

blood vessels = assay: In vitro activity screening: expanding blood vessels
[9] = test system: rats with cerebral ischemia; settings: rat, in vivo; cited from earlier work

Molecule	Maximum aggregation rate (%) [1]	Thrombus dry weight [2]	Thrombus wet weight [2]	Bleeding volume (caudal vein bleeding)	Hemostatic time (s) (caudal vein bleeding; cut-off 600 s)	inhibition of platelet aggregation in vitro (platelet aggregation)	activity against human platelet aggregation [3]	extending blood coagulation time (blood coagulation [4])	other results
C[C@H]1CC[C@@]2(OC1)O[C@H]1C[C@H]3[C@@H]4CC[C@@H]5C[C@@H](O[C@@H]6O[C@H](CO)[C@H](O)[C@H](O)[C@H]6O[C@@H]6O[C@H](CO)[C@@H](O)[C@H](O)[C@H]6O)CC[C@]5(C)[C@H]4CC[C@]3(C)[C@H]1[C@@H]2C [AIII, timosaponin AIII]	39.8 ± 5.0 %	24.4 ± 6.30 mg	64.29 ± 22.58 mg	21.3 ± 29.6 µL	396.6 ± 208.9^★★★ s	significantly inhibit; also recorded: significant inhibitive effect	significant activity	significant activity	
CC(=O)Oc1ccccc1C(=O)O [ASP, Aspirin]	40.8 ± 7.6 %	25.5 ± 7.37 mg	79.74 ± 18.95 mg	13.5 ± 13.8 µL	277.4 ± 188.5^★★★ s				Hemostatic time (caudal vein bleeding; cut-off 600 s, listed as aspirin): 277.4 ± 188.5 s; Lethal time (s) [5]: 244.6 ± 195.3 ^★ s; Thrombus weight (mg) Dry weight [6]: 26.7 ± 6.4 mg; Thrombus weight (mg) Wet weight [6]: 79.7 ± 19.0 mg; PLT maximum aggregation rate [7]: 49.1 ± 4.8; Coagulation time (s) APTT (blood coagulation [8]): 17.50 ± 2.37 s; Coagulation time (s) PT (blood coagulation [8]): 16.49 ± 2.08 s; Coagulation time (s) TT (blood coagulation [8]): 28.98 ± 0.97 s
C[C@@H](CC[C@@]1(O)O[C@H]2C[C@H]3[C@@H]4CC[C@@H]5C[C@@H](O[C@@H]6O[C@H](CO)[C@H](O)[C@H](O)[C@H]6O[C@@H]6O[C@H](CO)[C@@H](O)[C@H](O)[C@H]6O)CC[C@]5(C)[C@H]4CC[C@]3(C)[C@H]2[C@@H]1C)CO[C@@H]1O[C@H](CO)[C@@H](O)[C@H](O)[C@H]1O [BII, timosaponin BII]	50.8 ± 6.7%	28.6 ± 7.82 mg	90.39 ± 29.59 mg	10.7 ± 9.8 µL	325.1 ± 200.6^★★★ s	could not inhibit	significant activity	significant activity	expanding blood vessels (blood vessels): could expand blood vessels; also recorded: significant effect of expanding blood vessels; blood rheology [9]: significantly improve; cerebral edema [9]: alleviate; cerebral infarction area [9]: reduce; nervous symptoms of rats with cerebral ischemia [9]: significantly improve
CC1=C(CC[C@H](C)CO[C@@H]2O[C@H](CO)[C@@H](O)[C@H](O)[C@H]2O)O[C@H]2C[C@H]3[C@@H]4CC[C@@H]5C[C@@H](O[C@@H]6O[C@H](CO)[C@H](O)[C@H](O)[C@H]6O[C@@H]6O[C@H](CO)[C@@H](O)[C@H](O)[C@H]6O)CC[C@]5(C)[C@H]4CC[C@]3(C)[C@@H]12 [BIII]							significant activity	significant activity	
CO[C@]1(CC[C@H](C)CO[C@@H]2O[C@H](CO)[C@@H](O)[C@H](O)[C@H]2O)O[C@H]2C[C@H]3[C@@H]4CC[C@@H]5C[C@@H](O[C@@H]6O[C@H](CO)[C@H](O)[C@H](O)[C@H]6O[C@@H]6O[C@H](CO)[C@@H](O)[C@H](O)[C@H]6O)CC[C@]5(C)[C@H]4CC[C@]3(C)[C@H]2[C@@H]1C [BI]							significant activity	significant activity	
timosaponins Ia							significant activity	significant activity	
